Experimental data: PubChem BioAssay (NCI)
Values joined by “and” are separate entries in the source; they are usually repeats but may differ in a detail not shown here. Identical values can stand only once.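 The compound was tested at five concentrations on cells cultured in 96-well plates, with a 48-hour exposure period. GI50: concentration for 50% inhibition of growth. TGI: concentration producing complete growth inhibition.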

Legend:
Assay in all cases: NCI tumour cell line growth inhibition, 48 h
CAKI-1 renal = tested on: CAKI-1 renal
SK-MEL-2 melanoma = tested on: SK-MEL-2 melanoma
MDA-MB-231 breast = tested on: MDA-MB-231 breast
DU-145 prostate = tested on: DU-145 prostate
HOP-92 NSCLC = tested on: HOP-92 NSCLC
NCI/ADR-RES ovarian = tested on: NCI/ADR-RES ovarian
NCI-H23 lung = tested on: NCI-H23 lung
KM12 colon = tested on: KM12 colon
IGROV1 ovarian = tested on: IGROV1 ovarian
LOX IMVI melanoma = tested on: LOX IMVI melanoma

Structure (SMILES)	GI50 (CAKI-1 renal) [µM]	TGI (CAKI-1 renal) [µM]	GI50 (SK-MEL-2 melanoma)	TGI (SK-MEL-2 melanoma)	GI50 (MDA-MB-231 breast)	TGI (MDA-MB-231 breast)	GI50 (DU-145 prostate)	TGI (DU-145 prostate)	GI50 (HOP-92 NSCLC)	TGI (HOP-92 NSCLC)	GI50 (NCI/ADR-RES ovarian)	TGI (NCI/ADR-RES ovarian)	GI50 (NCI-H23 lung)	TGI (NCI-H23 lung)	GI50 (KM12 colon)	TGI (KM12 colon)	GI50 (IGROV1 ovarian)	TGI (IGROV1 ovarian)	GI50 (LOX IMVI melanoma)	TGI (LOX IMVI melanoma)
C1CCC([PH+](C2CCCCC2)C2CCCCC2[PH+](C2CCCCC2)C2CCCCC2)CC1.[Au].[CH-]1CCCCC1CC1CCCC[N-]1 (stereo not drawn)	0.791	2.29	0.398 µM	1.38 µM	0.227 µM	0.689 µM	0.363 µM	2.2 µM	0.212 µM	0.714 µM	2.86 µM	> 100 µM								
C=CC(=O)Nc1cccc(Oc2nc(Nc3ccc(N4CCN(C)CC4)cc3)nc3ccsc23)c1	1.99	> 10	2.85 µM and 2.49 µM	8.48 µM and 5 µM	2.25 µM and 2.24 µM	6.44 µM and 5.78 µM	2.41 µM and 2.04 µM	> 10 µM and 6.24 µM	0.801 µM and 1.81 µM	6.47 µM and 4.97 µM	2.73 µM and 3.3 µM	> 10 µM and 20.1 µM	4.27 µM and 9.48 µM	> 10 µM and 36.4 µM	3.36 µM and 2.49 µM	> 10 µM and 6.77 µM	1.42 µM and 1.75 µM	3.05 µM and 4.58 µM	1.69 µM and 1.75 µM	3.09 µM and 3.33 µM
Cc1ccc2c(C3Cc4ccccc4N3C(=O)/C=C\C(=O)O)c(C)[nH]c2c1 (stereo not drawn)		> 100		36 µM						84.1 µM				> 100 µM		> 100 µM		> 100 µM		> 100 µM
CO[C@H]1CC(O[C@@H]2/C(C)=C/C[C@@H]3C[C@@H](C[C@]4(C=C[C@H](C)[C@@H](C5CCCCC5)O4)O3)OC(=O)[C@@H]3C=C(C)[C@@H](O)[C@H]4OC/C(=C\C=C\[C@@H]2C)[C@]43O)O[C@@H](C)C1O[C@H]1C[C@H](OC)[C@@H](O)[C@H](C)O1 (stereo partly drawn)	1.22	2.73							0.301 µM	1.89 µM					1.77 µM	3.54 µM				
N#CC(C#N)=C1NC(=O)CC(=O)N1		> 100								> 100 µM				> 100 µM		> 100 µM		> 100 µM		> 100 µM
OCC1OC(n2cnc3c(N/N=C\c4ccccn4)ncnc32)C(O)C1O (stereo not drawn)	0.202	0.809	0.611 µM	> 100 µM	0.0781 µM	> 57.3 µM	0.0389 µM	10.1 µM			0.185 µM	11.7 µM	0.476 µM	> 100 µM	0.434 µM	> 100 µM	0.41 µM	8.98 µM	0.0971 µM	
O=C1NC(=O)C2C(=O)NC(=O)C1C2c1c(Cl)cccc1Cl (stereo not drawn)		> 100		> 100 µM						> 100 µM				> 100 µM		> 100 µM		> 100 µM		> 57.4 µM
CC(=O)Nc1ccc(SC#N)c2c(NC(C)=O)cccc12		> 100		> 100 µM						> 94.8 µM				> 100 µM		> 100 µM		> 100 µM		> 100 µM
CCC(=O)C12OC3OC(C)(C)OC3C1OC(C)(C)O2 (stereo not drawn)		> 100		> 100 µM						> 100 µM				> 100 µM		> 100 µM		> 100 µM		
N#CC(=C1C=CC(=NO)C=C1)c1ccc(Cl)cc1		29		20.2 µM						44.8 µM				75.3 µM		3.98 µM		56.1 µM		12 µM
COc1cc2nc(N3CCCC3)nc(NCCc3ccccc3)c2cc1OC	1.66	3.19	2.02 µM	3.91 µM	1.79 µM	3.35 µM	2.11 µM	5.11 µM	1.48 µM	3.16 µM			1.8 µM	3.64 µM	1.96 µM	3.74 µM	1.51 µM	2.95 µM		
O=C1CC(c2c[nH]c3ccccc23)C(=O)N1 (stereo not drawn)		> 100		> 100 µM										> 100 µM		> 100 µM		> 100 µM		
COc1ccc(-c2nc(Nc3cc(C)[nH]n3)c3ccccc3n2)cc1	0.52	> 64.1	0.44 µM	40.6 µM	4.21 µM	> 100 µM	3.75 µM	> 100 µM	0.621 µM	3.77 µM	3.25 µM	> 58.1 µM	5.47 µM	> 100 µM	0.0994 µM	29.1 µM	0.686 µM	7.12 µM		
COc1cc(C(=O)C/C(CCC(=O)Nc2ccccc2[N+](=O)[O-])=N\NC(N)=O)ccc1O		> 100		> 100 µM						> 100 µM				> 100 µM		> 100 µM		> 100 µM		> 100 µM
COC(=O)C1CC2CC(=NNC(N)=O)CC2C1 (stereo not drawn)		> 100		> 100 µM						> 100 µM				> 100 µM		> 100 µM		> 100 µM		> 100 µM
O=C(/C=C/c1cc2ccccc2[nH]c1=O)/C=C/c1cc2ccccc2[nH]c1=O	15.2	> 100	> 24.7 µM	> 30.6 µM	15.4 µM	> 100 µM	12.3 µM	> 70.3 µM	> 100 µM	> 100 µM	> 78 µM	> 100 µM	9.25 µM	48.9 µM	4.32 µM	8.59 µM	> 19.7 µM	> 49.3 µM		
O=c1[nH]c(=O)n(C2CC(O)C(COP(=O)(OCc3ccc([N+](=O)[O-])o3)N(CCCCCl)CC(O)CO)O2)cc1F (stereo not drawn)	0.191	0.589	> 73.8 µM	> 100 µM	> 100 µM	> 100 µM	0.176 µM	> 34.8 µM	0.156 µM		0.781 µM	> 100 µM	2.79 µM	> 100 µM	1.87 µM	> 100 µM			< 0.0226 µM	> 100 µM
CCN(CC)CC1c2ccccc2C(CNc2ccccc2)N1C (stereo not drawn)		> 100		> 100 µM						> 100 µM				> 100 µM		> 100 µM		> 100 µM		> 100 µM
CCCCCCCCCCCCCCCCCC[n+]1ccc2c(C)c3c(c(C)c2c1)c1cc(O)ccc1n3CC	11.5	28.7	1.58 µM	3.27 µM	2.76 µM	12.7 µM	1.87 µM	5.64 µM	1.64 µM	5.68 µM	10.8 µM	39 µM	0.912 µM	6.57 µM	2.01 µM	> 100 µM			2.73 µM	10.3 µM
